ChEMBL document CHEMBL3804830, “Efficient synthesis of new antiproliferative steroidal hybrids using the molecular hybridization approach” (Eur J Med Chem, 2016)

Legend:
[1] = Antiproliferative activity against human U87 cells assessed as cell growth inhibition after 72 hrs by MTT assay; type: functional, cell-based, U-87MG ATCC; details: U-87 MG
SH-SY5Y [2] = test: Antiproliferative activity against human SH-SY5Y cells assessed as cell growth inhibition after 72 hrs by MTT assay; type: functional, cell-based
[3] = Antiproliferative activity against human MGC803 cells assessed as cell growth inhibition after 72 hrs by MTT assay; type: functional, cell-based; details: MGC-803, 72 h
[4] = Antiproliferative activity against human EC109 cells assessed as cell growth inhibition after 72 hrs by MTT assay; type: functional, cell-based; details: ECa-109, 72 h
SH-SY5Y [5] = test: Cell cycle arrest in human SH-SY5Y assessed as accumulation at G2/M phase after 24 hrs by propidium iodide staining based flow cytometry; type: functional
SH-SY5Y [6] = test: Cell cycle arrest in human SH-SY5Y assessed as accumulation at G0/G1 phase at 1.25 uM after 24 hrs by propidium iodide staining based flow cytometry (reference value: 61.80%); type: functional
SH-SY5Y [7] = test: Cell cycle arrest in human SH-SY5Y assessed as accumulation at S phase at 1.25 uM after 24 hrs by propidium iodide staining based flow cytometry (reference value: 21.34%); type: functional
SH-SY5Y [8] = test: Cell cycle arrest in human SH-SY5Y assessed as accumulation at G2/M phase at 1.25 uM after 24 hrs by propidium iodide staining based flow cytometry (reference value: 14.53%); type: functional
SH-SY5Y [9] = test: Cell cycle arrest in human SH-SY5Y assessed as accumulation at G0/G1 phase at 2.5 uM after 24 hrs by propidium iodide staining based flow cytometry (reference value: 61.80%); type: functional
SH-SY5Y [10] = test: Cell cycle arrest in human SH-SY5Y assessed as accumulation at S phase at 2.5 uM after 24 hrs by propidium iodide staining based flow cytometry (reference value: 21.34%); type: functional
SH-SY5Y [11] = test: Cell cycle arrest in human SH-SY5Y assessed as accumulation at G2/M phase at 2.5 uM after 24 hrs by propidium iodide staining based flow cytometry (reference value: 14.53%); type: functional
SH-SY5Y [12] = test: Cell cycle arrest in human SH-SY5Y assessed as accumulation at G0/G1 phase at 5 uM after 24 hrs by propidium iodide staining based flow cytometry (reference value: 61.80%); type: functional
SH-SY5Y [13] = test: Cell cycle arrest in human SH-SY5Y assessed as accumulation at S phase at 5 uM after 24 hrs by propidium iodide staining based flow cytometry (reference value: 21.34%); type: functional
SH-SY5Y [14] = test: Cell cycle arrest in human SH-SY5Y assessed as accumulation at G2/M phase at 5 uM after 24 hrs by propidium iodide staining based flow cytometry (reference value: 14.53%); type: functional
SH-SY5Y [15] = test: Induction of apoptosis in human SH-SY5Y cells after 24 hrs by Annexin V-FITC/propidium iodide staining based flow cytometry; type: functional, cell-based
SH-SY5Y [16] = test: Induction of apoptosis in human SH-SY5Y cells assessed as viable cells at 1.25 uM after 24 hrs by Annexin V-FITC/propidium iodide staining based flow cytometry (reference value: 88.2%); type: functional; details: read-out: Activity
SH-SY5Y [17] = test: Induction of apoptosis in human SH-SY5Y cells assessed as early apoptotic cells at 1.25 uM after 24 hrs by Annexin V-FITC/propidium iodide staining based flow cytometry (reference value: 3.3%); type: functional
SH-SY5Y [18] = test: Induction of apoptosis in human SH-SY5Y cells assessed as late apoptotic cells at 1.25 uM after 24 hrs by Annexin V-FITC/propidium iodide staining based flow cytometry (reference value: 5.7%); type: functional
SH-SY5Y [19] = test: Induction of apoptosis in human SH-SY5Y cells assessed as necrotic cells at 1.25 uM after 24 hrs by Annexin V-FITC/propidium iodide staining based flow cytometry (reference value: 2.9%); type: functional
SH-SY5Y [20] = test: Induction of apoptosis in human SH-SY5Y cells assessed as viable cells at 2.5 uM after 24 hrs by Annexin V-FITC/propidium iodide staining based flow cytometry (reference value: 88.2%); type: functional; details: read-out: Activity
SH-SY5Y [21] = test: Induction of apoptosis in human SH-SY5Y cells assessed as early apoptotic cells at 2.5 uM after 24 hrs by Annexin V-FITC/propidium iodide staining based flow cytometry (reference value: 3.3%); type: functional
SH-SY5Y [22] = test: Induction of apoptosis in human SH-SY5Y cells assessed as late apoptotic cells at 2.5 uM after 24 hrs by Annexin V-FITC/propidium iodide staining based flow cytometry (reference value: 5.7%); type: functional
SH-SY5Y [23] = test: Induction of apoptosis in human SH-SY5Y cells assessed as necrotic cells at 2.5 uM after 24 hrs by Annexin V-FITC/propidium iodide staining based flow cytometry (reference value: 2.9%); type: functional
SH-SY5Y [24] = test: Induction of apoptosis in human SH-SY5Y cells assessed as viable cells at 5 uM after 24 hrs by Annexin V-FITC/propidium iodide staining based flow cytometry (reference value: 88.2%); type: functional; details: read-out: Activity
SH-SY5Y [25] = test: Induction of apoptosis in human SH-SY5Y cells assessed as early apoptotic cells at 5 uM after 24 hrs by Annexin V-FITC/propidium iodide staining based flow cytometry (reference value: 3.3%); type: functional
SH-SY5Y [26] = test: Induction of apoptosis in human SH-SY5Y cells assessed as late apoptotic cells at 5 uM after 24 hrs by Annexin V-FITC/propidium iodide staining based flow cytometry (reference value: 5.7%); type: functional
SH-SY5Y [27] = test: Induction of apoptosis in human SH-SY5Y cells assessed as necrotic cells at 5 uM after 24 hrs by Annexin V-FITC/propidium iodide staining based flow cytometry (reference value: 2.9%); type: functional
SH-SY5Y [28] = test: Induction of apoptosis in human SH-SY5Y cells assessed as viable cells at 10 uM after 24 hrs by Annexin V-FITC/propidium iodide staining based flow cytometry (reference value: 88.2%); type: functional; details: read-out: Activity
SH-SY5Y [29] = test: Induction of apoptosis in human SH-SY5Y cells assessed as early apoptotic cells at 10 uM after 24 hrs by Annexin V-FITC/propidium iodide staining based flow cytometry (reference value: 3.3%); type: functional
SH-SY5Y [30] = test: Induction of apoptosis in human SH-SY5Y cells assessed as late apoptotic cells at 10 uM after 24 hrs by Annexin V-FITC/propidium iodide staining based flow cytometry (reference value: 5.7%); type: functional
SH-SY5Y [31] = test: Induction of apoptosis in human SH-SY5Y cells assessed as necrotic cells at 10 uM after 24 hrs by Annexin V-FITC/propidium iodide staining based flow cytometry (reference value: 2.9%); type: functional
SH-SY5Y [32] = test: Induction of apoptosis in human SH-SY5Y cells assessed as viable cells at 20 uM after 24 hrs by Annexin V-FITC/propidium iodide staining based flow cytometry (reference value: 88.2%); type: functional; details: read-out: Activity
SH-SY5Y [33] = test: Induction of apoptosis in human SH-SY5Y cells assessed as early apoptotic cells at 20 uM after 24 hrs by Annexin V-FITC/propidium iodide staining based flow cytometry (reference value: 3.3%); type: functional
SH-SY5Y [34] = test: Induction of apoptosis in human SH-SY5Y cells assessed as late apoptotic cells at 20 uM after 24 hrs by Annexin V-FITC/propidium iodide staining based flow cytometry (reference value: 5.7%); type: functional
SH-SY5Y [35] = test: Induction of apoptosis in human SH-SY5Y cells assessed as necrotic cells at 20 uM after 24 hrs by Annexin V-FITC/propidium iodide staining based flow cytometry (reference value: 2.9%); type: functional
SH-SY5Y [36] = test: Induction of apoptosis in human SH-SY5Y cells assessed as reduction in mitochondrial membrane potential after 24 hrs by JC-1 staining based flow cytometry; type: functional, cell-based
SH-SY5Y [37] = test: Induction of apoptosis in human SH-SY5Y cells assessed as reduction in mitochondrial membrane potential at 2.5 uM after 24 hrs by JC-1 staining based flow cytometry (reference value: 5.1%); type: functional; set-up: scale not given: the % may be the effect or the level left
SH-SY5Y [38] = test: Induction of apoptosis in human SH-SY5Y cells assessed as reduction in mitochondrial membrane potential at 5 uM after 24 hrs by JC-1 staining based flow cytometry (reference value: 5.1%); type: functional; set-up: scale not given: the % may be the effect or the level left
SH-SY5Y [39] = test: Induction of apoptosis in human SH-SY5Y cells assessed as reduction in mitochondrial membrane potential at 10 uM after 24 hrs by JC-1 staining based flow cytometry (reference value: 5.1%); type: functional; set-up: scale not given: the % may be the effect or the level left
[40] = molecular target: Lysine-specific histone demethylase 1A (Homo sapiens, UniProt O60341); test: Inhibition of recombinant LSD1 (157 to 852 amino acids) (unknown origin) expressed in Escherichia coli BL21(DE) using H3K4me2 substrate
MCF7 = test: cells; details: Homo sapiens, MCF7, 72 h
Description: Antiproliferative activity against human MCF7 cells assessed as cell growth inhibition after 72 hrs by MTT assay

For `C[C@]12CC[C@H](OC(=O)Cn3cc(CN4C(=O)C(=O)c5c(Cl)ccc(Cl)c54)nn3)CC1=CC[C@@H]1[C@@H]2CC[C@]2(C)C(=O)CC[C@@H]12`, the IC50 [1] was 9.57 µM, the IC50 (SH-SY5Y [2]) was 4.06 µM and the IC50 [3] was 5.95 µM. The IC50 [4] was 20.8 µM, the Activity (SH-SY5Y [5]) was “Dose-dependent effect” and the Activity (SH-SY5Y [6]) was 50.31%. For the same compound, the Activity (SH-SY5Y [7]) was 24.78%, the Activity (SH-SY5Y [8]) was 21.31% and the Activity (SH-SY5Y [9]) was 45.36%. It also gave an Activity (SH-SY5Y [10]) of 23.48%, an Activity (SH-SY5Y [11]) of 23.88% and an Activity (SH-SY5Y [12]) of 52.33%. For the same compound, the Activity (SH-SY5Y [13]) was 12.48%, the Activity (SH-SY5Y [14]) was 27.74% and the Activity (SH-SY5Y [15]) was “Dose-dependent effect”. The viability at 1.25 µM (SH-SY5Y [16]) was 80.3%, the Activity (SH-SY5Y [17]) was 6.1% and the Activity (SH-SY5Y [18]) was 8.4%. The Activity (SH-SY5Y [19]) was 5.3%, the viability at 2.5 µM (SH-SY5Y [20]) was 81.4% and the Activity (SH-SY5Y [21]) was 10.6%. It also gave an Activity (SH-SY5Y [22]) of 6.4%, an Activity (SH-SY5Y [23]) of 1.6% and a viability at 5 µM (SH-SY5Y [24]) of 32.4%. For the same compound, the Activity (SH-SY5Y [25]) was 18.9%, the Activity (SH-SY5Y [26]) was 41.4% and the Activity (SH-SY5Y [27]) was 7.4%. It also gave a viability at 10 µM (SH-SY5Y [28]) of 0.8%, an Activity (SH-SY5Y [29]) of 39% and an Activity (SH-SY5Y [30]) of 59.7%. The Activity (SH-SY5Y [31]) was 0.5%, the viability at 20 µM (SH-SY5Y [32]) was 1% and the Activity (SH-SY5Y [33]) was 32.6%. The Activity (SH-SY5Y [34]) was 65.7%, the Activity (SH-SY5Y [35]) was 0.8% and the Activity (SH-SY5Y [36]) was “Dose-dependent effect”. For the same compound, the Activity (SH-SY5Y [37]) was 9%, the Activity (SH-SY5Y [38]) was 29.8% and the Activity (SH-SY5Y [39]) was 40.1%. It also gave an IC50 [40] of 3.18 µM and an IC50 (MCF7) of 32.2 µM.
